Each structure is given as a SMILES string.

The subject of one test is mitochondrial complex IV. The test can be described thus: Level of mitochondrial complex IV in IMR90 cells (subunit II antibody, western blotting). In general terms: A western blot detects proteins with antibodies after separation by electrophoresis.
The conditions of test [1]: rats; injected 1 mg/kg; cited from earlier work.
For test [2], the system named is IMR90 cells. In words: Replicative life span of IMR90 cells (population doubling level).
Test [3] relates to IMR90 cells. In words: H2O2-induced senescence of methylene blue-treated IMR90 cells. It is filed as cell-based, human. To be noted: continuous 100 nM; 10 μM H2O2. On the procedure:
In another experiment, the effect of hydrogen peroxide (H2O2) on senescence of methylene blue-treated cells was tested. IMR90 cells were seeded at an initial density of 0.5×10^6/dish and grown for two weeks in the presence of methylene blue prior to H2O2 treatment. Thereafter, cells were harvested weekly, counted, and seeded with or without methylene blue and/or 10 μM H2O2. Cells that were treated with hydrogen peroxide without methylene blue treatment had accelerated senescence. The H2O2-induced senescence was prevented when these cells were continuously treated with 100 nM methylene blue.

The conditions of test [4]: 300 mg/day for one year; cited from earlier work.
For test [5] the following is noted: 65 mg three times a day; cited from earlier work.

As for `CN(C)c1ccc2nc3ccc(=[N+](C)C)cc-3sc2c1` [methylene blue], in the test with mitochondrial complex IV (1000 nM, IMR90 cells), the “effect on complex IV” value was “caused removal of complex IV from the mitochondria”. In the test on mitochondrial complex IV (IMR90 cells), the “increase in level of complex IV above age-matched controls” value was “approximately 30%”. In test [1], the brain oxidative metabolism result is on record as “improved” and the memory retention result was “improved”. Further, the “increase in PDL” value in the test with IMR90 cells [2] (IMR90 cells seeded in 5% oxygen) is 10-15. Also, in the test on IMR90 cells [2] (IMR90 cells seeded in air), the delay of senescence is 25-30 population doublings and the “optimal concentration for delaying senescence” value lay within 10 to 100 nM. Besides, the H2O2-induced senescence entry with IMR90 cells [3] is “prevented”. The “depression compared with 15 mg/day placebo” value in test [4] was “significantly less depressed”. Also, in test [5], the “management of chronic renal calculous disease” value is “useful”.

For `Nc1ccc2nc3ccc(N)cc3[s+]c2c1` [thionine], the “effect on level of complex IV” value in the test on mitochondrial complex IV (IMR90 cells after treatment) was “increase in complex IV”. In addition, in the test on IMR90 cells [2] (100 nM, IMR90 cells), the “effect on senescence (replicative life span)” value was “effective”.

Values taken from patent US20060188866A1, “Diaminophenothiazine compositions and uses thereof” (Children's Hospital Oakland Research Institute, priority 2005, published 2006).
